From ChEMBL document CHEMBL1221256, “A mutant selective anti-estrogen is a pure antagonist on EREs and AP-1 response elements” (Bioorg Med Chem Lett, 2010) come the findings set out here.

The target in test [1] is Estrogen receptor beta (Homo sapiens, UniProt Q92731, E305A).
For test [2], the target named is Estrogen receptor (Homo sapiens, UniProt P03372, E353A).
Test [3] relates to Estrogen receptor beta (Homo sapiens), Q92731 [E305A]. Kind of test: Antagonist activity at human ERbeta E305A mutant expressed in human HeLa cells co-expressing AP-1 assessed as inhibition of transactivation activity at up to 10 uM by luciferase reporter gene assay. The test is classed as functional, cell-based.
Estrogen receptor beta (Homo sapiens), Q92731 [E305A], sequence (Q92731 whole entry E305A): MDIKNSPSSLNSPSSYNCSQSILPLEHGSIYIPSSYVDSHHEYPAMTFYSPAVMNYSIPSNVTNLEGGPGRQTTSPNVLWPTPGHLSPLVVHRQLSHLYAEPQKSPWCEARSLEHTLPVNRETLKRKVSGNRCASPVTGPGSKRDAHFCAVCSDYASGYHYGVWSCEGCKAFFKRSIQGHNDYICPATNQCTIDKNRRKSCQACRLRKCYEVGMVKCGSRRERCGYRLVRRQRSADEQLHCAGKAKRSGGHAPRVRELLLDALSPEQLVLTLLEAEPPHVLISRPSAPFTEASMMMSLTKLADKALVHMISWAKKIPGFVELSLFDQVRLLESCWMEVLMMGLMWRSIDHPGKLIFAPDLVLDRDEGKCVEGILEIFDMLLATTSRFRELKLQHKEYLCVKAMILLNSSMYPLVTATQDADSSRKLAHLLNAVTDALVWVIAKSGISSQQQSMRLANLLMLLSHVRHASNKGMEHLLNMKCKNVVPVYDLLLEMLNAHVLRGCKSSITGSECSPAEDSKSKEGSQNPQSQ
Test [4] has as its target T1, Estrogen receptor (Homo sapiens, UniProt P03372).
T1 sequence (P03372 whole entry): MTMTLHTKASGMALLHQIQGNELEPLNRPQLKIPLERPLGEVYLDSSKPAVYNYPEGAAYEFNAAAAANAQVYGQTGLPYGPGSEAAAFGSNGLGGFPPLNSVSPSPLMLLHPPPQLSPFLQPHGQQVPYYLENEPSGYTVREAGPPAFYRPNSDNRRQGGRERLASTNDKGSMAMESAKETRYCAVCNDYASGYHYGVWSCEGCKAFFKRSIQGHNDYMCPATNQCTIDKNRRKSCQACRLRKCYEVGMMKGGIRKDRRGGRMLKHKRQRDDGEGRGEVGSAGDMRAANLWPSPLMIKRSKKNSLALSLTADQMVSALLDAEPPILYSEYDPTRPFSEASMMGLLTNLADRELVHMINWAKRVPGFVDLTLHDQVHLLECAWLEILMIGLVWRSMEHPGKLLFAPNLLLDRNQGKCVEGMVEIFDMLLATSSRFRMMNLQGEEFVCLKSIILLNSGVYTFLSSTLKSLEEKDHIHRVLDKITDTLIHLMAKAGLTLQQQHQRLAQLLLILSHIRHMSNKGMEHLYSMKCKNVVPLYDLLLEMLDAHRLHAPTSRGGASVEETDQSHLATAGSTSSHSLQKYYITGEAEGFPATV

For test [5], the target named is T2, Estrogen receptor beta (Homo sapiens, UniProt Q92731).
T2 sequence (Q92731 whole entry): as the sequence (Q92731 whole entry E305A) above, with A305E counted along it
Test [6] addresses T2, Estrogen receptor beta. This is another data set of the same source.
In test [7] the target is T2, Estrogen receptor beta. The source holds these as a separate data set.
Description: Antagonist activity at human wild type ERbeta expressed in human HeLa cells co-expressing AP-1 assessed as inhibition of transactivation activity by luciferase reporter gene assay
Test [8] deals with T3, Estrogen receptor (Homo sapiens) (UniProt P03372).
T3 sequence (whole entry): T1 sequence (P03372 whole entry)
Kind of test: Agonist activity at human wild type ERalpha expressed in human HeLa cells co-expressing AP-1 assessed as transactivation activity by luciferase reporter gene assay. The test is classed as functional, cell-based.

Active and inactive are the calls of the source. No cut-off for these calls is given here.

Estrogen receptor beta (Homo sapiens, UniProt Q92731, E305A), sequence (Q92731 whole entry E305A): as the sequence (Q92731 whole entry E305A) above
Estrogen receptor (Homo sapiens, UniProt P03372, E353A), sequence (P03372 whole entry E353A): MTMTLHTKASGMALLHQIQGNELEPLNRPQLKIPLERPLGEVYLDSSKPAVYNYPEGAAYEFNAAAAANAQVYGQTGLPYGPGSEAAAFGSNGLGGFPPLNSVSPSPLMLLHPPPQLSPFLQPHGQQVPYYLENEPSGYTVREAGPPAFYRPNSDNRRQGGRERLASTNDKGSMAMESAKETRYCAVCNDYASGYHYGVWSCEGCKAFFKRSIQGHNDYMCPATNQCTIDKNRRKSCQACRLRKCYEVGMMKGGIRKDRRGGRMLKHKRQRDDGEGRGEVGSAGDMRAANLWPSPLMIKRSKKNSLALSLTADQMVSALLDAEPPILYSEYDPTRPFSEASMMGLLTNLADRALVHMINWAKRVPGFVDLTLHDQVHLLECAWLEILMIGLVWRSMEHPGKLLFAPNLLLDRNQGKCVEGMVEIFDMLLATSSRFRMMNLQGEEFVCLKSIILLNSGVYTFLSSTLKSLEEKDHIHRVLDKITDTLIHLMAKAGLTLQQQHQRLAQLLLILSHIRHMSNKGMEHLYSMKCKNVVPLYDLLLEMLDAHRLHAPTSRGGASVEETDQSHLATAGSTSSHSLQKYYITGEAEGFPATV

The term IC50 denotes the concentration needed to halve the response being measured. High values mean weaker potency in that assay, low ones greater potency in that assay. Usually EC50 stands for the concentration at which the effect is half-maximal. As to `O=C(O)/C=C/c1ccc2c(C(=O)c3ccc(OCCN4CCCCC4)cc3)c(-c3ccc(O)cc3)sc2c1`, the IC50 on Estrogen receptor beta [1] was greater than 10000 nM; against Estrogen receptor [2], 212 nM; against Estrogen receptor [4], 82 nM; against Estrogen receptor beta [5], greater than 10000 nM; on Estrogen receptor beta [6], 104 nM. Further, the result in test [3] was inactive. The compound also displayed an EC50 on Estrogen receptor beta [7] of 150 nM.

Consider `CCCCN(C)C(=O)CCCCCCCCCC[C@@H]1Cc2cc(O)ccc2[C@H]2CC[C@]3(C)[C@@H](O)CC[C@H]3[C@H]12`, for which the result in test [8] was Active.
